Broadly, the inhibition is the relative decrease from the control value, in per cent. By IC50 is commonly meant the midpoint of a concentration-inhibition curve.

A short description of data set [1]: BBB-PAMPA permeability assay. Type of data set: in vitro ADME. Particulars: for Papp at 18 h: PAMPA, read-out: effective permeability Pe; for Papp at 18 h / effective permeability Pe: porcine brain lipid, 18 h. As for the experimental part:
Supplementary Table 3: Caco-2 permeability and BBB-PAMPA permeability […]
For CaCo-2 permeability assay, cells were incubated with 10 µM of these reagents in buffers for 2 h, and the receiver side buffer is removed for analysis by LC/MS/MS. Efflux […]
For BBB-PAMPA permeability assay, the filter membrane was coated with 4 µl of a 20 mg ml-1 porcine brain lipid in dodecane. 200 µl of the compound solution was added to the donor well. The acceptor well was filled with 200 µl of transport buffer. The acceptor filter plate was carefully placed on to the donor plate to create […]
a sandwich. […] Samples of the donor and acceptor wells were analyzed by LC/MS/MS and the effective permeability (Pe) was calculated.
LLOQ: Lower Limit of Quantification; Papp: apparent permeability.
Background: In PAMPA a lipid-coated filter parts donor from acceptor wells.

Data set [2] in a line: Liver microsomal stability, human. Particulars: Human microsomes, 30 min, 37 °C. The procedure: (§1) Supplementary Table 4: Liver microsomal stability
(§2) Compound Species Mean Remaining Parent Mean Remaining Parent
(§3) (with NADPH) (NADPH-free)
(§4) The test agents were incubated in duplicate with microsomes at 37 °C for 30 min. The reaction contained microsomal protein in 100 mM potassium phosphate, 2 mM NADPH, 3 mM MgCl2, pH 7.4. A control was run for each test agent omitting NADPH to detect NADPH-free degradation. Data are reported as % remaining of parent compound. ND, Peak not detected due to bioanalysis issue (poor ionization).
Background: Microsomes from liver hold many membrane-bound enzymes, among them those of drug oxidation.

Another data set has as its target CYP2C9 (Homo sapiens, UniProt P11712). Kind of data set: CYP inhibition screening in microsomes. The note with it: pH 7.4.
Another data set has as its target T1, caspase-8 (Homo sapiens, UniProt Q14790).
T1 construct: purchased Millipore (Billerica, MA)
Kind of data set: IC50 assay with recombinant caspase-8. Type of data set: biochemical. The note with it: for IC50: mean±s.d. The procedure: (§5) Caspase-3 and 8 – The enzyme was pre-incubated with inhibitor in assay buffer (100 mM HEPES pH 7.4, 0.1% CHAPS, 10% Sucrose) for 10 min at 37 °C.
(§6) To determine the IC50 values of the compounds towards δ-secretase, cathepsin-S, cathepsin-L, caspase-3 and caspase-8, purified recombinant enzyme was incubated in appropriate assay buffers in the presence of increasing concentrations of inhibitors. The formation of fluorescent product was monitored in duplicate reactions and the data were fit to appropriate equations to calculate the IC50 values.

Another data set addresses T2, CYP1A2 (Homo sapiens, UniProt P05177).
T2 sequence (P05177 1-516): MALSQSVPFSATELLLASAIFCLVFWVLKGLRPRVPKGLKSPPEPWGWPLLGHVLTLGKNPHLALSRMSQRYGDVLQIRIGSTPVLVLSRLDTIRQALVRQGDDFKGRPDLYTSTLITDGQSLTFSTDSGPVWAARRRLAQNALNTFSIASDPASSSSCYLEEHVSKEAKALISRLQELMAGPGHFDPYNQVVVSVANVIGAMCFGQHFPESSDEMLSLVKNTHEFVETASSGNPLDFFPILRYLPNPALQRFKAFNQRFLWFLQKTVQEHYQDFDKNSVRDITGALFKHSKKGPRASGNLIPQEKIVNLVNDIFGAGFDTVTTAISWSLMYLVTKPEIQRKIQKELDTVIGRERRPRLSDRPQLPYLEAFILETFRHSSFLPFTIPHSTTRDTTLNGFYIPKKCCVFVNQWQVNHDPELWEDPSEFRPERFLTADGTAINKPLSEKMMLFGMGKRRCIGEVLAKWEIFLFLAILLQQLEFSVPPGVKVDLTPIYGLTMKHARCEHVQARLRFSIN
Kind of data set: CYP inhibition screening in microsomes. The note with it: pH 7.4.

Data set [3] can be described thus: Liver microsomal stability, mouse. The note with it: Mouse microsomes, 30 min, 37 °C. The procedure:
as §1, §2, §3, §4

In another data set the target is cathepsin-L (Homo sapiens, UniProt P07711). The data set can be described thus: IC50 assay with cathepsin-L. The data set is classed as biochemical. Particulars: mean±s.d. The procedure:
Cathepsin-L – 100 nM enzyme was pre-incubated with inhibitor in assay buffer (100 mM Sodium Acetate pH 5.5, 1 mM EDTA) for 10 min at 37 °C. The reaction was initiated on addition of 25 μM substrate (D-Val-Leu-Lys-AMC (Bachem).
as §6

The test system of a further data set is CYP3A. Kind of data set: CYP inhibition screening in microsomes. Particulars: human.
The target in another data set is T3, caspase-3 (Homo sapiens, UniProt P42574).
T3 construct: purchased Millipore (Billerica, MA)
T3 sequence (P42574 29-175 limits assumed): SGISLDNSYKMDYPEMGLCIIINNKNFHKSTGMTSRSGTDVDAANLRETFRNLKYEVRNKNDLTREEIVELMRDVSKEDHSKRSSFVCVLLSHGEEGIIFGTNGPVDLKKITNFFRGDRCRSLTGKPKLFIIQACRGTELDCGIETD
T3 sequence (P42574 176-277 limits assumed): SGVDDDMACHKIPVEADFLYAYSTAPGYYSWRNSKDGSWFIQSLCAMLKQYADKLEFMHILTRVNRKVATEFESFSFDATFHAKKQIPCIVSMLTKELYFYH
Kind of data set: IC50 assay with recombinant caspase-3. Type of data set: biochemical. Particulars: mean±s.d. As for the experimental part:
as §5, §6

Another data set deals with T4, cathepsin-S (Homo sapiens, UniProt P25774).
T4 construct: purchased Athens Research and Technology (Athens, GA)
T4 sequence (P25774 115-331, species assumed): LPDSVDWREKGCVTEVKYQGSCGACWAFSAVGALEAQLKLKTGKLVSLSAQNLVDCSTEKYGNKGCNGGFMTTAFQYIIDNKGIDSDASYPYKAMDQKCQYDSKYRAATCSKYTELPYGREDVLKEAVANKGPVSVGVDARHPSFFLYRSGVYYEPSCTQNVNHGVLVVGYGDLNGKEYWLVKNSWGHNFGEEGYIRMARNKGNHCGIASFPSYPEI
The data set can be described thus: IC50 assay with recombinant cathepsin-S. The data set is classed as biochemical. The note with it: mean±s.d. As for the experimental part:
Cathepsin-S – 100 nM enzyme was pre-incubated with inhibitor in assay buffer (100 mM NaH2PO4 pH 6.5, 100 mM NaCl) for 10 min at 37 °C. The reaction was initiated on addition of 25 μM substrate (Boc-Val-Leu-Lys-AMC (Bachem).
as §6

Another data set has as its target CYP2D6 (Homo sapiens, UniProt P10635). The data set can be described thus: CYP inhibition screening in microsomes. The note with it: pH 7.4.
Data set [4] addresses T5, δ-secretase in Pala cells (Homo sapiens, UniProt Q99538).
T5 sequence (Q99538 18-433): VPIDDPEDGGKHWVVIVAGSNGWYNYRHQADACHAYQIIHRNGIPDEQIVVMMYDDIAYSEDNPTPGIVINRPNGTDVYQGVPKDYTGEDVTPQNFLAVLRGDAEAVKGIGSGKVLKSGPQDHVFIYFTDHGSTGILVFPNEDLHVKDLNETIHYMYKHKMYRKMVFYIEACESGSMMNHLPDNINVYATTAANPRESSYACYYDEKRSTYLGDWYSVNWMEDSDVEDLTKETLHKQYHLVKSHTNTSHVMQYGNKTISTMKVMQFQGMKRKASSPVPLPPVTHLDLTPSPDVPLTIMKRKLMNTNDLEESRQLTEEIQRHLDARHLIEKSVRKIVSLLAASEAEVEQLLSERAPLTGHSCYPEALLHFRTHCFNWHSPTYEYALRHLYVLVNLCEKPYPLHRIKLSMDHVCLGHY
The data set can be described thus: δ-secretase inhibition in intact Pala cells.
Method: Cells were collected, washed twice with PBS and lysed in Lysis Buffer (20 mM citric acid, 60 mM disodium hydrogen orthophosphate, 1 mM EDTA, 0.1% CHAPS, pH 5.8). […] Data were analysed with GraFit version 5.0.11 software package.
δ-secretaseactivity assay.

T1 sequence (Q14790 217-374 limits assumed, species assumed): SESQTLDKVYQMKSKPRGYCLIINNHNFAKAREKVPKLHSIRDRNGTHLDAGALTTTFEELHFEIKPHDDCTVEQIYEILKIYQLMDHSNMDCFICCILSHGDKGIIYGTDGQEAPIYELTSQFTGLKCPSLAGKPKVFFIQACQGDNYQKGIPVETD
T1 sequence (Q14790 385-479 limits assumed, species assumed): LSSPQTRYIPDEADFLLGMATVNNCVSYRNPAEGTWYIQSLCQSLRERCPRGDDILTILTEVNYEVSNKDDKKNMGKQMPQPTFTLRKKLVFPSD
CYP2D6, sequence (P10635 whole entry): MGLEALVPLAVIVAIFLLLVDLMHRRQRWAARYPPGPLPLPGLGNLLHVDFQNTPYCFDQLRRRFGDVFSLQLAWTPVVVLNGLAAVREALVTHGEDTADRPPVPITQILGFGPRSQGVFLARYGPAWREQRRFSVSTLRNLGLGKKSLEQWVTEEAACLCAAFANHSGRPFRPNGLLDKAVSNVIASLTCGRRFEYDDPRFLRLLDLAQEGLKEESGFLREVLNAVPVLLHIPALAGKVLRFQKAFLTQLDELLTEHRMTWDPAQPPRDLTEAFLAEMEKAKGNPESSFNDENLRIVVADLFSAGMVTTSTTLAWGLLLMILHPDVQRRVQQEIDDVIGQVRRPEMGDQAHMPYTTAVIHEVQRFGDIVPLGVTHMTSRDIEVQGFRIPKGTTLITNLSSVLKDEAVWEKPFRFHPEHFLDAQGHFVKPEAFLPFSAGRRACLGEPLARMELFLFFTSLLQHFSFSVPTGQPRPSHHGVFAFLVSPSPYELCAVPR
CYP2C9, sequence (P11712 whole entry): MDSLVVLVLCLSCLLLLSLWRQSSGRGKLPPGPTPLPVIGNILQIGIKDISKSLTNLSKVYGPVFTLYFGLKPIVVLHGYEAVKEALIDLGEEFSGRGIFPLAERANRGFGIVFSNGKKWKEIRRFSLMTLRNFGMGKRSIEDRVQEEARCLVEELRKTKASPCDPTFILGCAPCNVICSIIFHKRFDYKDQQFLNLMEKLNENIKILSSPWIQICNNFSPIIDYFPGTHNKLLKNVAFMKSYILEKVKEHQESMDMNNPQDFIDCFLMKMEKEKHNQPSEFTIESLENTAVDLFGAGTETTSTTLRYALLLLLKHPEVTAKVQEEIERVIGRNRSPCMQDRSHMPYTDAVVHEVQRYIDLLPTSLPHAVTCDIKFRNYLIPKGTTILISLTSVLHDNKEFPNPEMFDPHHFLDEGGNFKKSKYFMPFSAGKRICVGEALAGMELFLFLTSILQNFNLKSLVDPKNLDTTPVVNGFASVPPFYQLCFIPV
cathepsin-L, sequence (P07711 114-333, species assumed): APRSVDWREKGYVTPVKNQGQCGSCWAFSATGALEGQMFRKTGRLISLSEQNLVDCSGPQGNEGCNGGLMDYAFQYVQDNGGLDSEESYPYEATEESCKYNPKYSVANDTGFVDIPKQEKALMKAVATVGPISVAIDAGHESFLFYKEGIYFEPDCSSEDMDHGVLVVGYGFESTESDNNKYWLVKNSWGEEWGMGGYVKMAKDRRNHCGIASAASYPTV

Regarding `Nc1ccc(N2CCOCC2)c2nonc12` [compound 11, 7-(morpholin-4-yl)-2,1,3-benzoxadiazol-4-amine], the “BBB-PAMPA permeability / BBB penetration in words” value in data set [1] is “detected at high-levels”. Also, the Papp at 18 h in data set [1] is above 25 ×10⁻⁶ cm/s. Moreover, the “Mean Remaining Parent (NADPH-free)” value in [2] came to 93%; in data set [3], 103%. For the same molecule, the “Mean Remaining Parent (with NADPH)” value in data set [2] is 76%; in data set [3], 20%. The inhibition at 10 min, 3 µM at CYP2C9 amounted to 4.3%; at CYP1A2, 13.1%; with CYP3A (pH 7.4), 4.1%; against CYP2D6, 7.8%. The inhibition at 10 min, 10 µM against CYP2C9 came to 5.6%; at CYP1A2, 37%; in the data set on CYP3A (pH 7.4), 21.6%; against CYP2D6 it was 21.9%. The IC50 at caspase-8 was 86.7 ± 10.3 µM; against cathepsin-L it was above 200 µM; on caspase-3, 31.9 ± 1.94 µM; at cathepsin-S, above 200 µM.
In the case of `Cc1cccc(NCc2ccc(O)c3ncccc23)c1C` [compound 12], the “effective permeability Pe” value in [1] is “< LLOQ”. Besides, the “Mean Remaining Parent (NADPH-free)” value in data set [2] stood at 1%; in data set [3] it was 0%. Besides, the “Mean Remaining Parent (with NADPH)” value in [2] and in data set [3] was 1% each time. For the same molecule, the inhibition at 10 min, 3 µM on CYP2C9 was determined as 4.3%; on CYP1A2, 28.4%; in the data set on CYP3A (pH 7.4, probe testosterone), 14.2%; at CYP2D6, 2.9%. Further, the inhibition at 10 min, 10 µM on CYP2C9 was -2.7%; against CYP1A2, 44.5%; in the data set with CYP3A (pH 7.4, probe testosterone), 27.6%; on CYP2D6, -2.6%. Moreover, the IC50 at caspase-8 is above 200 µM; at cathepsin-L, above 200 µM; on caspase-3 it was above 200 µM; on cathepsin-S, above 200 µM; in data set [4], 0.43 ± 0.21 µM.
Take `COc1ccc(N2CCN(C(c3ccc(N(C)C)cc3)c3nnnn3C(C)(C)C)CC2)cc1` (stereo not drawn) [compound 31]: the “BBB-PAMPA permeability / BBB penetration in words” value in data set [1] is “barely penetrate the BBB”. Further, the “effective permeability Pe” value in data set [1] is reported as “< LLOQ”. For the same molecule, the “Mean Remaining Parent (NADPH-free)” value in [2] is on record as 75%; in [3] it was 86%. Also, the “Mean Remaining Parent (with NADPH)” value in data set [2] is given as 12%; in data set [3], 16%. The inhibition at 10 min, 3 µM turned out to be 47.8% on CYP2C9; 13.5% against CYP1A2; 2.5% with CYP3A (pH 7.4, probe testosterone); 9.9% at CYP2D6. Also, the inhibition at 10 min, 10 µM against CYP2C9 came to 69.2%; on CYP1A2, 10.3%; in the data set with CYP3A (pH 7.4, probe testosterone) it was 0.7%; on CYP2D6, 1.4%. Moreover, the IC50 was above 100 µM on caspase-8; 1.3 ± 0.39 µM against cathepsin-L; above 100 µM at caspase-3; above 100 µM at cathepsin-S; 0.67 ± 0.4 µM in data set [4].
As to `Cn1c(=O)[nH]c(=O)c2c1nc(S)n2CC(O)COc1ccc(Cl)cc1` (stereo not drawn) [compound 38], the “BBB-PAMPA permeability / BBB penetration in words” value in data set [1] is listed as “barely penetrate the BBB”. For the same molecule, the Papp at 18 h in [1] is 0.007 ×10⁻⁶ cm/s. The entries for the “Mean Remaining Parent (NADPH-free)” value in data set [2] and in data set [3] were 107% and 99%, respectively. Also, the “Mean Remaining Parent (with NADPH)” value in [2] is 88%; in data set [3] it was 98%. Besides, the inhibition at 10 min, 3 µM against CYP2C9 is 15.6%; on CYP1A2, -7.6%; in the data set on CYP3A (pH 7.4, probe testosterone) it was -6%; on CYP2D6, -5.4%. The inhibition at 10 min, 10 µM against CYP2C9 came out at 17.1%; on CYP1A2, 10.5%; with CYP3A (pH 7.4, probe testosterone), 2.4%; against CYP2D6, 0.9%. Besides, the “selectivity for δ-secretase compared to caspase-8” value on caspase-8 is “at least 80 fold”. Besides, the IC50 on caspase-8 is 76.1 ± 8.12 µM; at cathepsin-L it was above 200 µM; on caspase-3 it was 29.7 ± 4.68 µM; on cathepsin-S, above 200 µM; in data set [4] it was 0.11 ± 0.05 µM.

For the origin of these results see publication PMC5378956, “Inhibition of delta-secretase improves cognitive functions in mouse models of Alzheimer's disease” (Nature Communications, 2017).
